Test results published in article PMC12898745, “VOCs Profiling and Quality Assessment of Milk Employing Odorant-Binding Proteins-Based Fluorescence Biosensor” (International Journal of Molecular Sciences, 2026).
Where two headings read alike, the source gives them in different places.

T1: pOBP (Sus scrofa, UniProt P81245)
T1 sequence (P81245 1-157): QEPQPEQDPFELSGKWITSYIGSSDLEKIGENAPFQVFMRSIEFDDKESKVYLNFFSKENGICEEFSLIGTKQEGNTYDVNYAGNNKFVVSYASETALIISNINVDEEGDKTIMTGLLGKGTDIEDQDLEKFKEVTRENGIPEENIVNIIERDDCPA

T2: bOBP (Bos taurus, UniProt P07435)
T2 sequence (P07435 1-159): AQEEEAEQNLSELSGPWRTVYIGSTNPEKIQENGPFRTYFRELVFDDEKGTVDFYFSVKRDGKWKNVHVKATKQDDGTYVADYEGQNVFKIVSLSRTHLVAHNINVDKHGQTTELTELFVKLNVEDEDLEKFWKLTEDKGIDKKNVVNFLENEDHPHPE

T3: bOBP (Bos taurus, UniProt P07435, H155C/INS121G/W64C)
T3 construct: His tag; made in house
T3 sequence (P07435 with tags, fused parts or gaps W64C/INS121G/H155C): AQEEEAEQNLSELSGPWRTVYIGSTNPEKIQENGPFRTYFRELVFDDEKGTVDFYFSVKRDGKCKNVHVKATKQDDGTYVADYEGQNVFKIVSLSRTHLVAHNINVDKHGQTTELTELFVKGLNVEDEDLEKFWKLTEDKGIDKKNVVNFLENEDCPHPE


How the values were obtained:
pOBP [1] = biological target: T1, pOBP; test: Fluorescence titration with 1-AMA and competitive FRET assay on pOBP; type: binding, porcine
Method: (§1) The ability of pOBP and bOBP to bind 1-AMA was assessed through fluorescence titration experiments. […] However, upon binding 1-AMA to OBPs, two major spectral changes were observed: • A blue-shift in the emission maximum to 481 nm, along with a significant increase in fluorescence intensity. • A decrease in the tryptophan fluorescence emission at 340 nm.
(§2) A competitive FRET assay was performed to study the interaction between the OBP and the selected VOCs. In the assay, a solution of OBPs in the presence of 1-AMA was titrated with increasing concentrations of VOCs. The fluorescence emissions at 481 nm (1-AMA bound state) and 340 nm (tryptophan emission) were recorded. A progressive decrease of 1-AMA fluorescence emission and a partial recovery of the protein tryptophan emission were observed. This trend indicates the displacement of 1-AMA from the protein binding site by individual selected VOCs. The variations in the FRET signals, due to competitive binding, were used to quantify the VOC bound to the protein.
Steady-state fluorescence measurements were conducted using an ISS K2 Frequency-Domain Fluorometer (ISS Inc., Champaign, IL, USA) with a 1.0 cm path length quartz cuvette. Fluorescence spectra of bOBP and pOBP samples were recorded, ensuring optical densities below 0.1 OD at 295 nm to prevent inner filter effects. Tryptophan (Trp) residues were excited at 295 nm, and fluorescence emission spectra were collected from 320 nm to 600 nm at 1 nm intervals, with a scan speed of 100 nm/min and excitation and emission slit widths set at 1.0 nm. The lamp power was maintained at 17.5 A. Assays were performed in 500 μL of phosphate saline buffer (PBS) at pH 7.4. The OBPs-VOCs interactions were studied by a fluorescence titration approach. For this purpose, the protein (12 µM, saturated with 1-AMA) was titrated with increasing concentrations of the tested VOC. The measurements were carried out in triplicate, and the obtained experimental data were processed by OriginPro 2021b software.
For the fluorometric competitive assay, the ability of OBPs to bind VOCs and 1-AMA was utilized to develop a FRET-based assay. The competition between VOCs and 1-AMA for binding to the OBP’s active site was studied by monitoring the fluorescence emission decrease consequent to the VOCs displacement of 1-AMA from the OBP’s active site. […] The measurements were carried out in triplicate, and the data were analyzed using the OriginPro 2021b software.

bOBP [2] = biological target: T2, bOBP; test: Fluorescence titration with 1-AMA and competitive FRET assay on bOBP; type: binding, bovine; details: read-out: bOBP Kd ± SD; non-linear fitting; PBS pH 7.4; VOCs by displacement of 1-AMA
Method: as §1
as §2, with “This trend indicates the displacement of 1-AMA from the protein binding site by individual selected VOCs.” left out
Steady-state fluorescence measurements were conducted using an ISS K2 Frequency-Domain Fluorometer (ISS Inc., Champaign, IL, USA) with a 1.0 cm path length quartz cuvette. Fluorescence spectra of bOBP and pOBP samples were recorded, ensuring optical densities below 0.1 OD at 295 nm to prevent inner filter effects. […] The OBPs-VOCs interactions were studied by a fluorescence titration approach. […]

pOBP [3] = biological target: T1, pOBP; test: Thermal denaturation of pOBP by tryptophan fluorescence; type: physicochemical, porcine; details: for effect of VOC on thermal stability (Tm) of pOBP: saturating concentrations: 1-pentanol 50 mM, 1-octen-3-ol 5 mM, 2-butanone 10 mM
Method: (§3) Thermal stability studies were conducted to evaluate the temperature-induced denaturation of the pOBP and bOBP. The experiments aimed to determine the unfolding dynamics of these proteins and assess the influence of VOCs on protein stability. The thermal stabilities of pOBP and bOBP were monitored by fluorescence spectroscopy. The temperature-dependent fluorescence emission spectra were recorded in the range 320–410 nm, with excitation at 295 nm to selectively excite tryptophan residues.
(§4) Boltzmann fitting was applied to describe the thermal denaturation behavior and determine the melting temperature (Tm) values, defined as the midpoint of the transition between the folded and unfolded states. The calculated Tm values were 62 ± 0.4 °C for pOBP (Figure 6b) and 54 ± 0.5 °C for bOBP (Figure 7b).
(§5) To analyze the protein’s thermal stability, studies on temperature-induced denaturation were conducted on the chosen OBPs in the absence and presence of the selected VOCs. The emission spectra were recorded at an excitation wavelength of 295 nm to focus only on the contribution of tryptophan residues with a 12 μM pOBP sample, with an optical density around 0.1 OD at 295 nm.
Fluorescence intensity variation was recorded in the temperature range from 25 to 95 °C and the emission spectra acquired in the wavelength range 320–410 nm. Measurements were performed in triplicate after 10 min of incubation at defined temperatures. […] To analyze the thermal denaturation data, OriginPro 2021b software was used.

[4] = biological target: bovine serum albumin (BSA) (Bos taurus, UniProt P02769); test: HS-SPME/GC-MS binding assay with BSA (negative control protein); details: BSA in place of pOBP; 10 µM volatile, overnight, room temperature
Sequence of bovine serum albumin (BSA) (P02769 25-607): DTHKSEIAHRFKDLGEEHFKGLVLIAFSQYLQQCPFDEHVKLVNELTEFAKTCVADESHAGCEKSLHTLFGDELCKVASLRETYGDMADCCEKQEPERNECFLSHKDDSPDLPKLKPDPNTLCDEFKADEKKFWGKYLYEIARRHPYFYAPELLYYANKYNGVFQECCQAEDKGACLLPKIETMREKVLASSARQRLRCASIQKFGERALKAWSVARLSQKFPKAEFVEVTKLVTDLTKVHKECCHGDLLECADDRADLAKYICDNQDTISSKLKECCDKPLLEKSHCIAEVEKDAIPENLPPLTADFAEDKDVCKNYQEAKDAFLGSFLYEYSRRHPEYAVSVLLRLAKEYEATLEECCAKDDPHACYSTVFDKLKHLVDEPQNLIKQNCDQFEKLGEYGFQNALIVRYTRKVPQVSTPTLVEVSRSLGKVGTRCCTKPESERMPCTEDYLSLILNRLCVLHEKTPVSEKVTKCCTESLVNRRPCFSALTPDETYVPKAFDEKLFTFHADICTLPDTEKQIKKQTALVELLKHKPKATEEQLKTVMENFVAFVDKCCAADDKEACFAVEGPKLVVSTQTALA
Method: Afterwards, the fiber (DVB-Carboxen-PDMS, 2 cm length SUPELCO, Bellefonte, PA, USA) was automatically inserted in the vial for 60 min and then desorbed for 10 min at 250 °C in the injector port of a GC, model 7890A, Agilent (Agilent Technologies, Santa Clara, CA, USA) coupled to a mass spectrometer, model 5975 C (Agilent), where VOCs were thermally released and directly transported to a capillary column HP-Innowax (30 m × 0.25 mm × 0.5 µm Agilent J&W) for analysis. The oven temperature was set as follows: 40 °C for 1 min, ramped to 160 °C at 6 °C min^−1, then, after 1 min, increased 10 °C min^−1 to 210 °C, and finally ramped to 230 °C at 15 °C min^−1, and kept there for 5 min. The temperatures of the ion source and the quadrupole were 230 °C and 150 °C, respectively, and helium at a flow rate of 1.0 mL min^−1 was the carrier gas. The analyses were carried out using the pulsed spitless mode, and mass spectra were recorded at an ionization energy of 70 eV, with mass selective detector operating in the mass range between 30 and 300 u. […]
Linear retention indices (LRIs) were calculated using the same chromatographic conditions by injecting C8–C40 n-alkane series (Supelco, Bellefonte, PA, USA). VOCs were identified by comparing the mass spectra reported in the NIST-2014 and Wiley 7.0 libraries by matching the calculated LRI with the literature data and by valuating their retention times, with respect to those of pure standards, if available. The VOCs concentrations were expressed as the equivalent of the IS (percent ratio of the respective peak area relative to the IS area, RPA%), and areas were taken from the total ion chromatogram (TIC) according to the following equation: (Peak Area of each VOC/Peak Area IS) × 100. […]

pOBP [5] = biological target: T1, pOBP; test: HS-SPME/GC-MS binding assay with pOBP; set-up: species or system porcine; details: pOBP 30 µM; 10 µM volatile, overnight, room temperature
Method: To assess the ability of pOBP to bind VOCs, HS-SPME/GC-MS analyses were carried out on binding assays in the absence and in the presence of the two OBPs. Binding assay experiments were conducted in parallel on samples in the absence (only buffer as negative control) and in the presence of bovine serum albumin (BSA) (used as negative control of protein) or pOBP.
The HS-SPME/GC-MS technique was used to evaluate the VOCs profiles of samples of raw cow milk and, successively, the ability of purified OBPs to bind to selected VOCs in the gas phase. According to Sacchi et al., 5 mL of milk were introduced in a HS-SPME 20 mL glass vial, with 5 µL of a standard solution of 2-methyl-3-pentanone used as internal standard (IS, 5 mM). Samples were equilibrated for 30 min at 55 °C to release VOCs. […] The analyses were carried out using the pulsed spitless mode, and mass spectra were recorded at an ionization energy of 70 eV, with mass selective detector operating in the mass range between 30 and 300 u. […]
Linear retention indices (LRIs) were calculated using the same chromatographic conditions by injecting C8–C40 n-alkane series (Supelco, Bellefonte, PA, USA). VOCs were identified by comparing the mass spectra reported in the NIST-2014 and Wiley 7.0 libraries by matching the calculated LRI with the literature data and by valuating their retention times, with respect to those of pure standards, if available. The VOCs concentrations were expressed as the equivalent of the IS (percent ratio of the respective peak area relative to the IS area, RPA%), and areas were taken from the total ion chromatogram (TIC) according to the following equation: (Peak Area of each VOC/Peak Area IS) × 100.
Using the same experimental parameters reported above, HS-SPME/GC-MS analysis was also performed on pOBP samples with and without exposition to the HS of the selected VOCs. […] The peak areas measured for PBS-only and pOBP-comprising samples were compared for each experiment. […]

bOBP [6] = biological target: T3, bOBP; test: Thermal denaturation of bOBP by tryptophan fluorescence; type: physicochemical, bovine; details: saturating VOC concentrations
Method: as §3, §4, §5
Fluorescence intensity variation was recorded in the temperature range from 25 to 95 °C and the emission spectra acquired in the wavelength range 320–410 nm. […]

pOBP [7] = biological target: T1, pOBP; test: Fluorescence quenching (Stern-Volmer) of pOBP; set-up: species or system porcine; details: acrylamide quencher, no VOC
Method: To study the protein conformational changes and accessibility to the tryptophan residues, fluorescence quenching experiments were conducted. According to Lakowicz, acrylamide is the most suitable quencher for tryptophan fluorescence. The quenching effect of acrylamide on the intrinsic fluorescence of the protein was analyzed. The study aimed to characterize the accessibility of tryptophan residues, to differentiate between static and dynamic quenching mechanisms, and to assess the effects of the VOCs binding on protein stability. Fluorescence quenching can occur through two primary mechanisms: dynamic (collisional) and static quenching. Dynamic quenching occurs when acrylamide molecules collide with the fluorophore in its excited state, facilitating a non-radiative energy transfer or electron exchange. […]
To evaluate the solvent accessibility of the OBP’s tryptophan residues, a fluorescence quenching assay was performed using acrylamide. […] Fluorescence emission spectra were acquired using an excitation wavelength of 295 nm and emission range from 310 to 410 nm.
Quenching data were evaluated using the Stern–Volmer equation by plotting F0/F against [Q], where F0 represents the fluorescence intensity without quencher, F is the fluorescence intensity in the presence of quencher, and [Q] denotes the quencher concentration [Equation (2)]:(2) F0/F=1+KSV [Q]

pOBP [8] = biological target: T1, pOBP; set-up: method as in earlier work; details: HS-DSC, neutral pH; ref 21 (Staiano et al. 2007); cited from earlier work
[9] = non-linear fitting, PBS pH 7.4, VOCs by displacement of 1-AMA, read-out: pOBP Kd ± SD
[10] = competitive titration with VOC, Figure 4 insets, read-out: k (Hill fit), decrease of 1-AMA emission at 481 nm, pOBP

Kd (pOBP [1]; [9]) | effect of VOC on thermal stability (Tm) of pOBP (pOBP [3]) | %RPA, BSA [4] | %RPA, pOBP (pOBP [5]) | Kd (pOBP [1]; [10]) | Tm of pOBP in the presence of VOC (pOBP [3]; saturating VOC concentration (1-octen-3-ol 5 mM)) | effect of VOC on thermal stability (Tm) of bOBP (bOBP [6]) | Stern-Volmer constant K_SV, pOBP (pOBP [7]) | Molecule | Kd (pOBP [1]) | Kd (bOBP [2]) | melting temperature (Tm) of pOBP (pOBP [3]; no VOC, Boltzmann fitting, emission 340 nm, 25-95 °C) | unfolding transition temperature of pOBP (pOBP [8])
 |  |  |  |  |  |  |  | Nc1cccc2cc3ccccc3cc12 [1-AMA, 1-aminoanthracene, reference compound] | 2.03 ± 0.13 µM | 2.68 ± 0.46 µM |  | 
479 ± 53 µM | significantly stabilized | 226.7 ± 8.9 %RPA | 708.1 ± 2.7 %RPA | 479 µM | 64 ± 1.45 °C |  |  | C=CC(O)CCCCC (stereo not drawn) [1-octen-3-ol] |  |  |  | 
1800 ± 1200 µM | significantly stabilized | 242.5 ± 5.1 %RPA | 425.0 ± 8.3 %RPA | 1860 µM |  | highest stability |  | CCCCCO [1-pentanol] |  |  |  | 
 |  |  |  |  |  |  | 3 ± 1 M^−1 | pOBP: porcine odorant-binding protein, a typical monomeric lipocalin used as molecular recognition element (protein, UniProt P81245 1-157, looked up) Odorant-binding protein: QEPQPEQDPFELSGKWITSYIGSSDLEKIGENAPFQVFMRSIEFDDKESKVYLNFFSKENGICEEFSLIGTKQEGNTYDVNYAGNNKFVVSYASETALIISNINVDEEGDKTIMTGLLGKGTDIEDQDLEKFKEVTRENGIPEENIVNIIERDDCPA |  |  | 62 ± 0.4 °C | approximately 69 °C

Molecule | Kd (pOBP [1]; [9]) | effect of VOC on thermal stability (Tm) of pOBP (pOBP [3]) | %RPA, BSA [4] | %RPA, pOBP (pOBP [5]) | Kd (pOBP [1]; [10]) | Tm of pOBP in the presence of VOC (pOBP [3]; saturating VOC concentration (1-octen-3-ol 5 mM)) | effect of VOC on thermal stability (Tm) of bOBP (bOBP [6]) | Stern-Volmer constant K_SV, pOBP (pOBP [7]) | Kd (pOBP [1]) | Kd (bOBP [2]) | melting temperature (Tm) of pOBP (pOBP [3]; no VOC, Boltzmann fitting, emission 340 nm, 25-95 °C) | unfolding transition temperature of pOBP (pOBP [8])
CCC(C)=O [2-butanone] | 934 ± 56 µM | significantly stabilized | 276.2 ± 2.7 %RPA | 926.7 ± 10.3 %RPA |  |  |  |  |  |  |  | 
